In PubChem BioAssay AID248 (DTP/NCI, 2004):
Several values for one entry are separate records, joined by “and”; a condition that tells them apart may be missing. Equal entries are not always repeated. Inconclusive results and toxic doses are left out.

Tested on: L1210 leukemia ip in BDF1 mice, survival T/C
Test: NCI In Vivo Anticancer Drug Screen. Data for tumor model L1210 Leukemia (intraperitoneal) in B6D2F1 (BDF1) mice
Settings: endpoint: mean survival time, higher = longer survival
Outline: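 Tumor was transplanted into mice, which were then dosed with test compound or vehicle alone. Survival was recorded for each group, and the treated figure was expressed relative to the control figure.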

[1] = dose: 100.0 mg/kg/injection, schedule: Q04DX003 (ip), vehicle: saline with Tween-80
[2] = dose: 100.0 mg/kg/injection, schedule: Q04DX003 (ip), vehicle: Klucel (hydroxypropylcellulose) (HPC)
[3] = dose: 200.0 mg/kg/injection, schedule: Q04DX003 (ip), vehicle: Klucel (hydroxypropylcellulose) (HPC)
[4] = dose: 400.0 mg/kg/injection, schedule: Q04DX003 (ip), vehicle: Klucel (hydroxypropylcellulose) (HPC)
[5] = dose: 100.0 mg/kg/injection, schedule: Q01DX009 (ip), vehicle: Klucel (hydroxypropylcellulose) (HPC)
[6] = dose: 200.0 mg/kg/injection, schedule: Q01DX009 (ip), vehicle: Klucel (hydroxypropylcellulose) (HPC)
[7] = dose: 400.0 mg/kg/injection, schedule: Q01DX009 (ip), vehicle: Klucel (hydroxypropylcellulose) (HPC)
[8] = dose: 100.0 mg/kg/injection, schedule: Q01DX009 (ip), vehicle: saline with Tween-80
[9] = dose: 200.0 mg/kg/injection, schedule: Q01DX009 (ip), vehicle: saline with Tween-80
[10] = dose: 400.0 mg/kg/injection, schedule: Q01DX009 (ip), vehicle: saline with Tween-80
[11] = dose: 100.0 mg/kg/injection, schedule: Q01DX001 (ip), vehicle: other
[12] = dose: 200.0 mg/kg/injection, schedule: Q04DX003 (ip), vehicle: saline with Tween-80
[13] = dose: 400.0 mg/kg/injection, schedule: Q04DX003 (ip), vehicle: saline with Tween-80
[14] = dose: 100.0 mg/kg/injection, schedule: Q01DX001 (ip), vehicle: saline
[15] = dose: 200.0 mg/kg/injection, schedule: Q01DX001 (ip), vehicle: saline
[16] = dose: 3.12 mg/kg/injection, schedule: Q01DX009 (ip), vehicle: saline with Tween-80
[17] = dose: 6.25 mg/kg/injection, schedule: Q01DX009 (ip), vehicle: saline with Tween-80
[18] = dose: 12.5 mg/kg/injection, schedule: Q01DX009 (ip), vehicle: saline with Tween-80
[19] = dose: 400.0 mg/kg/injection, schedule: Q01DX001 (ip), vehicle: saline

N#Cc1cccc[n+]1Cc1ccc([N+](=O)[O-])cc1
T/C [1]: 97 % of control

Cc1ccc(S(=O)(=O)Oc2cc([N+](=O)[O-])ccc2N)cc1
T/C (dose: 100.0 mg/kg/injection, schedule: Q01DX009 (ip), vehicle: saline): 103 % of control | T/C (dose: 200.0 mg/kg/injection, schedule: Q01DX009 (ip), vehicle: saline): 105 % of control | T/C (dose: 400.0 mg/kg/injection, schedule: Q01DX009 (ip), vehicle: saline): 100 % of control

Cc1[nH]c(=S)[nH]c(=O)c1CCC(C)C
T/C [2]: 113 % of control | T/C [3]: 100 % of control | T/C [4]: 106 % of control

CC(C)(C)N(CCC(=O)c1ccccc1)C(=O)c1ccccc1
T/C [5]: 98 % of control | T/C [6]: 102 % of control | T/C [7]: 88 % of control

Nc1cc2c(cc1Br)-c1ccc([N+](=O)[O-])cc1/C2=N\O
T/C (dose: 100.0 mg/kg/injection, schedule: Q01DX001 (ip), vehicle: carboxymethylcellulose (CMC)): 113 % of control | T/C (dose: 200.0 mg/kg/injection, schedule: Q01DX001 (ip), vehicle: carboxymethylcellulose (CMC)): 103 % of control | T/C (dose: 400.0 mg/kg/injection, schedule: Q01DX001 (ip), vehicle: carboxymethylcellulose (CMC)): 97 % of control

Cc1cc(Nc2ccc(C)c(C)c2)nc(N)n1
T/C (dose: 100.0 mg/kg/injection, schedule: Q01DX Z (ip), vehicle: methylcellulose (MC)): 108 % of control

CCCCN(Cc1ccccc1)C(=O)NC(C)(C)C
T/C [5]: 97 % of control | T/C [6]: 102 % of control | T/C [7]: 97 % of control

COc1ccc2c(c1C)OC(C)C2=O (stereo not drawn)
T/C [5]: 93 % of control | T/C [2]: 101 % of control | T/C [6]: 92 % of control | T/C [3]: 104 % of control | T/C [7]: 104 % of control | T/C [4]: 97 % of control

C1CN2CCN1CC2
T/C (dose: 37.5 mg/kg/injection, schedule: Q01DX009 (ip), vehicle: Klucel (hydroxypropylcellulose) (HPC)): 91 % of control | T/C (dose: 75.0 mg/kg/injection, schedule: Q01DX009 (ip), vehicle: Klucel (hydroxypropylcellulose) (HPC)): 91 % of control | T/C (dose: 150.0 mg/kg/injection, schedule: Q01DX009 (ip), vehicle: Klucel (hydroxypropylcellulose) (HPC)): 89 % of control | T/C (dose: 300.0 mg/kg/injection, schedule: Q01DX009 (ip), vehicle: Klucel (hydroxypropylcellulose) (HPC)): 94 % of control

O=C1CC(=Nc2ccc([N+](=O)[O-])cc2)NN1c1c(Cl)cc(Cl)cc1Cl
T/C [8]: 97 % of control | T/C [9]: 101 % of control | T/C [10]: 90 % of control

C=CCn1cnc2c(=S)nc[nH]c21
T/C (dose: 12.0 mg/kg/injection, schedule: Q01DX015 (ip), vehicle: other): 124 % of control | T/C (dose: 37.5 mg/kg/injection, schedule: Q01DX Z (ip), vehicle: alkali diluted with saline): 166 % of control | T/C (dose: 63.0 mg/kg/injection, schedule: Q01DX015 (ip), vehicle: other): 92 % of control | T/C (dose: 75.0 mg/kg/injection, schedule: Q01DX Z (ip), vehicle: alkali diluted with saline): 114 % of control | T/C [11]: 116 % of control | T/C (dose: 108.0 mg/kg/injection, schedule: Q01DX015 (ip), vehicle: other): 87 % of control | T/C (dose: 150.0 mg/kg/injection, schedule: Q01DX Z (ip), vehicle: alkali diluted with saline): 92 % of control

CCOC(=O)C1C(=O)C(C(=O)Nc2ccccc2)C(=O)C(C(=O)OCC)C1c1ccc(O)cc1 (stereo not drawn)
T/C [11]: 91 % of control and 97 % of control | T/C [8]: 102 % of control and 100 % of control | T/C [1]: 103 % of control and 97 % of control | T/C (dose: 200.0 mg/kg/injection, schedule: Q01DX001 (ip), vehicle: other): 94 % of control and 91 % of control | T/C [9]: 96 % of control and 100 % of control | T/C [12]: 97 % of control | T/C [10]: 100 % of control and 101 % of control | T/C [13]: 97 % of control and 96 % of control

O=C(Nc1cccc(CSc2nc3nc[nH]c(=O)c3[nH]2)c1)Oc1ccccc1
T/C (dose: 50.0 mg/kg/injection, schedule: Q01DX001 (ip), vehicle: Klucel (hydroxypropylcellulose) (HPC)): 96 % of control | T/C (dose: 100.0 mg/kg/injection, schedule: Q01DX001 (ip), vehicle: Klucel (hydroxypropylcellulose) (HPC)): 91 % of control | T/C (dose: 200.0 mg/kg/injection, schedule: Q01DX001 (ip), vehicle: Klucel (hydroxypropylcellulose) (HPC)): 98 % of control

Cc1cc(C)[n+]([O-])c(C)c1[N+](=O)[O-]
T/C [14]: 101 % of control | T/C [15]: 101 % of control

COc1cc(C(=O)N(CCCl)N=O)cc(OC)c1OC
T/C (dose: 1.56 mg/kg/injection, schedule: Q01DX009 (ip), vehicle: saline with Tween-80): 100 % of control | T/C [16]: 100 % of control and 107 % of control | T/C [17]: 100 % of control and 104 % of control | T/C [18]: 104 % of control | T/C (dose: 25.0 mg/kg/injection, schedule: Q04DX003 (ip), vehicle: saline with Tween-80): 102 % of control | T/C (dose: 50.0 mg/kg/injection, schedule: Q04DX003 (ip), vehicle: saline with Tween-80): 89 % of control | T/C [1]: 102 % of control and 86 % of control

CCOC(=O)c1cnc(SC)nc1NNc1ccc([N+](=O)[O-])cc1
T/C (dose: 100.0 mg/kg/injection, schedule: Q01DX001 (ip), vehicle: saline with Tween-80): 90 % of control | T/C (dose: 200.0 mg/kg/injection, schedule: Q01DX001 (ip), vehicle: saline with Tween-80): 92 % of control

O=C(/C=C\c1ccccc1)NCCNC(=O)/C=C/c1ccccc1
T/C [14]: 105 % of control | T/C [15]: 94 % of control | T/C [19]: 108 % of control

CCOC(CN(Cc1ccc(OC)c(OCc2ccccc2)c1)S(=O)(=O)c1ccc(C)cc1)OCC
T/C (dose: 25.0 mg/kg/injection, schedule: Q01DX009 (ip), vehicle: water): 102 % of control | T/C (dose: 50.0 mg/kg/injection, schedule: Q01DX009 (ip), vehicle: water): 94 % of control | T/C (dose: 100.0 mg/kg/injection, schedule: Q01DX009 (ip), vehicle: water): 97 % of control | T/C (dose: 200.0 mg/kg/injection, schedule: Q01DX009 (ip), vehicle: water): 94 % of control | T/C (dose: 400.0 mg/kg/injection, schedule: Q01DX009 (ip), vehicle: water): 96 % of control

CCCCC(CC)C1OC(=O)C(C)O1 (stereo not drawn)
T/C [5]: 100 % of control | T/C [2]: 102 % of control | T/C [6]: 104 % of control | T/C [3]: 100 % of control | T/C [7]: 105 % of control | T/C [4]: 102 % of control

Cc1cc(S(N)(=O)=O)ccc1Cl
T/C [1]: 93 % of control | T/C [12]: 93 % of control | T/C [13]: 104 % of control

COc1ccc(C(=O)/C=C/c2ccc(OCc3ccccc3)c(OC)c2)cc1OC
T/C (dose: 100.0 mg/kg/injection, schedule: Q04DX003 (ip), vehicle: water): 93 % of control | T/C (dose: 200.0 mg/kg/injection, schedule: Q04DX003 (ip), vehicle: water): 93 % of control | T/C (dose: 400.0 mg/kg/injection, schedule: Q04DX003 (ip), vehicle: water): 91 % of control

C=C(Br)CNCCCCCC
T/C (dose: 12.5 mg/kg/injection, schedule: Q01DX009 (ip), vehicle: Klucel (hydroxypropylcellulose) (HPC)): 94 % of control | T/C (dose: 25.0 mg/kg/injection, schedule: Q01DX009 (ip), vehicle: Klucel (hydroxypropylcellulose) (HPC)): 111 % of control

c1cnc2ccc3c(c2c1)COCO3
T/C [14]: 93 % of control

S=P(Oc1cc(Cl)c(Cl)cc1Cl)(N1CCN(c2ccccc2)CC1)N1CCN(c2ccccc2)CC1
T/C [14]: 90 % of control | T/C [15]: 90 % of control | T/C [19]: 88 % of control

CC1CN(C(=N)C#N)C(C)CN1C(=N)C#N (stereo not drawn)
T/C [8]: 92 % of control | T/C [1]: 109 % of control | T/C [12]: 104 % of control

c1ccc2c(c1)O[As](O[As]1Oc3ccccc3O1)O2
T/C (dose: 1.56 mg/kg/injection, schedule: Q04DX003 (ip), vehicle: saline): 104 % of control | T/C [16]: 108 % of control | T/C (dose: 3.12 mg/kg/injection, schedule: Q04DX003 (ip), vehicle: saline): 106 % of control | T/C [17]: 116 % of control | T/C (dose: 6.25 mg/kg/injection, schedule: Q04DX003 (ip), vehicle: saline): 115 % of control | T/C [18]: 122 % of control | T/C (dose: 12.5 mg/kg/injection, schedule: Q04DX003 (ip), vehicle: saline with Tween-80): 96 % of control

CC1N(N=O)CC1(Cl)c1ccccc1 (stereo not drawn)
T/C (dose: 100.0 mg/kg/injection, schedule: Q04DX002 (ip), vehicle: saline): 98 % of control | T/C (dose: 200.0 mg/kg/injection, schedule: Q04DX002 (ip), vehicle: saline): 98 % of control | T/C (dose: 400.0 mg/kg/injection, schedule: Q04DX002 (ip), vehicle: saline): 102 % of control
